Assay results taken from patent US10646494B2, “Heterocycle-substituted tetracyclic compounds and methods of use thereof for the treatment of viral diseases” (Merck Sharp & Dohme Corp., priority 2016, dated 2020).
Like-named read-outs stand apart in the source and are kept apart here.

What was measured:
Parameters in all cases: species or system Hepatitis C virus (HCV)
HCV replicon 2B = assay: Cell-based HCV replicon assay (Replicon Assay A), replicon 2B; details: read-out: Replicon EC50 (nM) 2B, replicon 2B, replicon RNA by real time PCR, cells harvested on day 3
Description: (§1) To measure cell-based anti-HCV activity of compounds of the present invention, two complimentary assays were employed using various replicons. In the first assay (“Replicon Assay A”), replicon cells were seeded at 2000 cells/well in 384-well 384-well flat bottom tissue culture treated clear bottom plate (Corning 3707) in the presence of the test compound. Various concentrations of test compound, typically in 10 serial dilutions, were added to the assay mixture, with the starting concentration ranging from 333.3 nM to […]. The final concentration of DMSO was 0.5%. Fetal bovine serum was 5%, in the assay media. Cells were harvested on day 3 by removing media and washing the cells with a suitable wash buffer. The cells are lysed with the addition of 1× Qiagen lysis buffer (Cat #1062731). The replicon RNA level was measured using real time PCR (TaqMan® EZ RT-PCR, Applied Biosystems 403028) with the following primers and probes: […]
(§2) Cyclophilin RNA was used as endogenous control and was amplified in the same reaction as NS5B (multiplex PCR). The real-time RT-PCR reactions were run on ABI PRISM 7900HT Sequence Detection System using the following program: 50° C. for 2 minutes, 60° C. for 30 minutes, 95° C. for 5 minutes, 40 cycles of 94° C. for 20 sec, 55° C. for 1 minutes.
(§3) The amount of HCV replicon RNA per cell is quantified using a linear regression curve for a known nanogram (ng) amount of HCV replicon total RNA. This is established by plotting the Cycle Threshold values (Ct) from the Neo probe and primer set versus the log (ng) for each HCV replicon total RNA standard. The amount of HCV RNA for each replicon sample is calculated by taking the sample's Ct value, minus the line intercept, divided by the slope of the line. Similarly, the amount of Cyclophilin mRNA per cell is also quantified using a linear regression curve for a known nanogram (ng) amount of HCV replicon total RNA. Again, this is established by plotting the Cycle Threshold values (Ct) from the Cyclophilin probe and primer set versus the log (ng) for each HCV replicon total RNA standard.
(§4) Data was obtained for various compounds of the present invention using the methods described in the Example above, and is presented in the table immediately below. Data for replicons 1A, 1AY93H and 2B were obtained using Replicon Assay A and data for replicons 1B were obtained using Replicon Assay B.

HCV replicon 1A Y93H = assay: Cell-based HCV replicon assay (Replicon Assay A), replicon 1AY93H; details: read-out: Replicon EC50 (nM) 1A Y93H, replicon 1A Y93H, replicon RNA by real time PCR, cells harvested on day 3
Description: as §1, §2, §3, §4

HCV replicon 1A = assay: Cell-based HCV replicon assay (Replicon Assay A), replicon 1A; details: replicon RNA by real time PCR, cells harvested on day 3
Description: as §1, §2, §3, §4

| SMILES | EC50 (HCV replicon 2B) [nM] | EC50 (HCV replicon 1A Y93H) [nM] | EC50 (HCV replicon 1A) [nM] | EC50 (HCV replicon 1A Y93H; Hepatitis C virus, 72 h) [nM] | EC50 (HCV replicon 1A; Hepatitis C virus, 72 h) [nM] | EC50 (HCV replicon 2B; Hepatitis C virus, 72 h) [nM] |
| --- | --- | --- | --- | --- | --- | --- |
| COC(=O)N[C@H](C(=O)N1CCC[C@H]1c1ncc(-c2cc(F)c3c(c2)OC(c2cnns2)n2c-3cc3cc(-c4cnc([C@@H]5CCCN5C(=O)[C@@H](NC(=O)OC)C(C)C)[nH]4)ccc32)[nH]1)C(C)C (single isomer, unassigned) [Compound 21] | 0.98 | 1.39 |  |  |  |  |
| COC(=O)N[C@H](C(=O)N1CCC[C@@H]1c1ncc(-c2ccc3c(c2)cc2n3C(c3cnco3)Oc3cc(-c4cnc([C@H]5CCCN5C(=O)[C@H](NC(=O)OC)C(C)C)[nH]4)cc(F)c3-2)[nH]1)C(C)C (single isomer, unassigned) [Compound 18] | 3.54 | 18.4 | 0.0023 |  |  |  |
| COC(=O)N[C@H](C(=O)N1CCC[C@H]1c1ncc(-c2cc(F)c3c(c2)OC(c2cc4ccccn4n2)n2c-3cc3cc(-c4cnc([C@@H]5CCCN5C(=O)[C@@H](NC(=O)OC)C(C)C)[nH]4)ccc32)[nH]1)C(C)C (single isomer, unassigned) [Compound 41] | 0.57 | 0.317 | 0.0019 |  |  |  |
| COC(=O)N[C@H](C(=O)N1CCC[C@@H]1c1ncc(-c2ccc3c(c2)cc2n3C(c3nnc(C)s3)Oc3cc(-c4cnc([C@H]5CCCN5C(=O)[C@H](NC(=O)OC)C(C)C)[nH]4)cc(F)c3-2)[nH]1)C(C)C (single isomer, unassigned) [Compound 16] | 1.75 |  |  |  |  |  |
| COC(=O)N[C@H](C(=O)N1CCC[C@H]1c1ncc(-c2cc(F)c3c(c2)OC(c2cc4ccccn4n2)n2c-3cc3cc(-c4cnc([C@@H]5CCCN5C(=O)[C@@H](NC(=O)OC)C(C)C)[nH]4)ccc32)[nH]1)C(C)C (single isomer, unassigned) [Compound 39] | 0.33 | 1.66 | 0.0068 |  |  |  |
| COC(=O)N[C@H](C(=O)N1CCC[C@H]1c1ncc(-c2ccc3c(c2)OC(c2ccc(C)o2)n2c-3cc3cc(-c4cnc([C@@H]5C[C@H]6C[C@H]6N5C(=O)[C@@H](NC(=O)OC)C(C)C)[nH]4)ccc32)[nH]1)C(C)C (some centres unmarked) [Compound 45] |  |  |  | 4.22 | 0.0484 |  |
| COC(=O)N[C@H](C(=O)N1CCC[C@H]1c1ncc(-c2cc(F)c3c(c2)OC(c2cc(C(C)C)no2)n2c-3cc3cc(-c4cnc([C@@H]5CCCN5C(=O)[C@@H](NC(=O)OC)C(C)C)[nH]4)ccc32)[nH]1)C(C)C (single isomer, unassigned) [Compound 26] | 0.8 | 0.816 |  |  |  |  |
| COC(=O)N[C@H](C(=O)N1CCC[C@H]1c1ncc(-c2cc(F)c3c(c2)O[C@@H](c2cc(C(C)C)no2)n2c-3cc3cc(-c4cnc([C@@H]5CCCN5C(=O)[C@@H](NC(=O)OC)C(C)C)[nH]4)ccc32)[nH]1)C(C)C (single isomer, unassigned) [Compound 9] | 0.27 | 0.05 |  |  | 0.0036 |  |
| CCc1cc([C@@H]2Oc3cc(-c4cnc([C@@H]5CCCN5C(=O)[C@@H](NC(=O)OC)C(C)C)[nH]4)cc(F)c3-c3cc4cc(-c5cnc([C@@H]6CCCN6C(=O)[C@@H](NC(=O)OC)C(C)C)[nH]5)ccc4n32)on1 (single isomer, unassigned) [Compound 7] | 10.5 | 49.7 | 0.0073 |  |  |  |
| COC(=O)N[C@H](C(=O)N1CCC[C@H]1c1ncc(-c2cc(F)c3c(c2)OC(c2nc4ccccc4n2C)n2c-3cc3cc(-c4cnc([C@@H]5CCCN5C(=O)[C@@H](NC(=O)OC)C(C)C)[nH]4)ccc32)[nH]1)C(C)C (mixture of isomers) [Compound 11] |  |  |  | 21.6 | 0.0081 | 8.23 |
| COC(=O)N[C@H](C(=O)N1CCC[C@@H]1c1ncc(-c2ccc3c(c2)cc2n3C(c3nnc(C)s3)Oc3cc(-c4cnc([C@H]5CCCN5C(=O)[C@H](NC(=O)OC)C(C)C)[nH]4)cc(F)c3-2)[nH]1)C(C)C (single isomer, unassigned) [Compound 15] |  |  |  |  |  | 3.06 |
| COC(=O)N[C@H](C(=O)N1CCC[C@H]1c1ncc(-c2cc(F)c3c(c2)OC(c2nc(C)co2)n2c-3cc3cc(-c4cnc([C@@H]5CCCN5C(=O)[C@@H](NC(=O)OC)C(C)C)[nH]4)ccc32)[nH]1)C(C)C (single isomer, unassigned) [Compound 24] | 2.62 | 0.266 | 0.0021 |  |  |  |
| COC(=O)N[C@H](C(=O)N1CCC[C@H]1c1ncc(-c2ccc3c(c2)OC(c2ccc(C)o2)n2c-3cc3cc(-c4cnc([C@@H]5C[C@@H](F)CN5C(=O)[C@@H](NC(=O)OC)C(C)C)[nH]4)ccc32)[nH]1)C(C)C (some centres unmarked) [Compound 43] |  |  |  | 1.02 | 0.0281 | 0.06 |
| COC(=O)N[C@H](C(=O)N1CCC[C@H]1c1ncc(-c2cc(F)c3c(c2)OC(c2cc4ccccn4n2)n2c-3cc3cc(-c4cnc([C@@H]5CCCN5C(=O)[C@@H](NC(=O)OC)C(C)C)[nH]4)ccc32)[nH]1)C(C)C (single isomer, unassigned) [Compound 40] | 1.54 | 0.536 | 0.0084 |  |  |  |
| COC(=O)N[C@H](C(=O)N1CCC[C@H]1c1ncc(-c2cc(F)c3c(c2)OC(c2cc4ccccn4n2)n2c-3cc3cc(-c4cnc([C@@H]5CCCN5C(=O)[C@@H](NC(=O)OC)C(C)C)[nH]4)ccc32)[nH]1)C(C)C (mixture of isomers) [Compound 12] |  |  |  |  | 0.0202 | 33.3 |
| COC(=O)N[C@H](C(=O)N1CCC[C@H]1c1ncc(-c2cc(F)c3c(c2)OC(c2cc(C4CC4)no2)n2c-3cc3cc(-c4cnc([C@@H]5CCCN5C(=O)[C@@H](NC(=O)OC)C(C)C)[nH]4)ccc32)[nH]1)C(C)C (single isomer, unassigned) [Compound 29] | 0.46 | 3.25 |  |  |  |  |
| CCc1cc(C2Oc3cc(-c4cnc([C@@H]5CCCN5C(=O)[C@@H](NC(=O)OC)C(C)C)[nH]4)cc(F)c3-c3cc4cc(-c5cnc([C@@H]6CCCN6C(=O)[C@@H](NC(=O)OC)C(C)C)[nH]5)ccc4n32)on1 (mixture of isomers) [Compound 5] |  |  |  | 0.708 |  | 4.17 |
| COC(=O)N[C@H](C(=O)N1CCC[C@H]1c1ncc(-c2ccc3c(c2)OC(c2ccc(C)o2)n2c-3cc3cc(-c4cnc([C@@H]5C[C@@H](F)CN5C(=O)[C@@H](NC(=O)OC)C5CCOCC5)[nH]4)ccc32)[nH]1)C(C)C (some centres unmarked) [Compound 44] |  |  |  | 0.434 | 0.0679 |  |
| COC(=O)N[C@H](C(=O)N1CCC[C@H]1c1ncc(-c2cc(F)c3c(c2)OC(c2cnc4n2CCC4)n2c-3cc3cc(-c4cnc([C@@H]5CCCN5C(=O)[C@@H](NC(=O)OC)C(C)C)[nH]4)ccc32)[nH]1)C(C)C (some centres unmarked) [Compound 13] |  |  |  |  | 0.147 |  |
| COC(=O)N[C@H](C(=O)N1CCC[C@H]1c1ncc(-c2ccc3c(c2)OC(c2nnc(-c4ccccc4)o2)n2c-3cc3cc(-c4cnc([C@@H]5CCCN5C(=O)[C@@H](NC(=O)OC)C5CCOCC5)[nH]4)ccc32)[nH]1)C1CCOCC1 (mixture of isomers) [Compound 38] |  |  |  | 0.737 | 0.223 |  |
| CCc1nnc(C2Oc3cc(-c4cnc([C@@H]5CCCN5C(=O)[C@@H](NC(=O)OC)C(C)C)[nH]4)cc(F)c3-c3cc4cc(-c5cnc([C@@H]6CCCN6C(=O)C(NC(=O)OC)C(C)C)[nH]5)ccc4n32)s1 (single isomer, unassigned) [Compound 34] |  |  | 0.0084 | 0.793 |  |  |
| CCc1cnc(C2Oc3cc(-c4cnc([C@@H]5CCCN5C(=O)[C@@H](NC(=O)OC)C(C)C)[nH]4)cc(F)c3-c3cc4cc(-c5cnc([C@@H]6CCCN6C(=O)[C@@H](NC(=O)OC)C(C)C)[nH]5)ccc4n32)o1 (single isomer, unassigned) [Compound 27] | 5.5 |  |  |  | 0.0027 |  |
